In patent US9801850B2, “Antibacterial agent” (OSAKA UNIVERSITY, priority 2009, dated 2017):
Values after ≈ are worked out from the molar mass of the structure shown.

How the values were obtained:
MSSA ATCC25923 = assay: MIC, broth microdilution (Example 2, Table 6); assay type: cell-based, Staphylococcus aureus
MSSA ATCC29213 = assay: MIC, broth microdilution (Example 2, Table 6); assay type: cell-based, Staphylococcus aureus
[1] = system: MSSA clinical isolate No. 2; assay: MIC, broth microdilution (Example 2, Table 6); assay type: cell-based, Staphylococcus aureus
[2] = system: MSSA clinical isolate No. 4; assay: MIC, broth microdilution (Example 2, Table 6); assay type: cell-based, Staphylococcus aureus
[3] = system: MRSA clinical isolate No. 6; assay: MIC, broth microdilution (Example 2, Table 6); assay type: cell-based, Staphylococcus aureus
[4] = system: MRSA clinical isolate No. 9; assay: MIC, broth microdilution (Example 2, Table 6); assay type: cell-based, Staphylococcus aureus
[5] = system: MRSA clinical isolate No. 10; assay: MIC, broth microdilution (Example 2, Table 6); assay type: cell-based, Staphylococcus aureus
[6] = system: Bacillus cereus ATCC14579; assay: Antibacterial spectrum MIC (Table 7); assay type: cell-based
Experimental: (§1) Methicillin-susceptible Staphylococcus aureus (MSSA) NCTC8325 and methicillin-resistant Staphylococcus aureus (MRSA) ATCC43300 were used as bacteria. The bacteria of each type were cultured using Mueller-Hinton Broth (MH-broth, Difco) as a medium. Then, the minimum inhibitory concentration (MIC) of each of the EGCG derivatives was measured by a broth microdilution method in accordance with the Clinical and Laboratory Standards Institute (CLSI) guidelines (hereinafter the same).
(§2) First, each of the EGCG derivatives was dissolved in 100% dimethyl sulfoxide (DMSO, Wako Pure Chemical Industries, Ltd.) so that the concentration thereof became 5120 μg/ml. The resultant solution was diluted with DMSO or sterile distilled water so as to prepare two-fold dilution series of antibacterial agent solutions. […] Each of these antibacterial agent solutions was dispensed to wells of a 96-well plate. The concentration of the EGCG derivative in the antibacterial agent solution dispensed to the wells was set to be 10 times as high as the final concentration. On the other hand, the bacteria were cultured in the MH-broth at 37° C. overnight, and the thus-obtained pre-culture solution was diluted with a new MH-broth so that the concentration thereof in the MH-broth became 10^−4 (10^4-fold dilution), thus preparing a bacterial culture solution of about 1×10^5 CFU/ml (CFU: Colony Forming Unit, the number of viable cells). The bacterial culture solution was further added to each well, and the mixture was cultured at 37° C. for 18 hours. The ratio (volume ratio) between the antibacterial agent solution and the bacterial culture solution added to each well was set to 1:9 (the antibacterial agent solution:the bacterial culture solution), and the volume of the mixture of them per well was set to 100 μl in total. The final concentration of the EGCG derivative in the mixture was set to 8 μg/ml to 512 μg/ml, and the number of viable cells in the mixture was set to about 1×10^5 CFU/ml. Then, after the completion of the culture, the MIC was determined. Also, the turbidity (OD600 nm) was measured using a plate reader so as to identify minor differences.
(§3) Regarding the respective type strains shown in Tables 7 and 8 below, the MIC measurement was performed using the antibacterial agent solutions of Example 2 in the same manner as described in Section (2) of Example 1, except for the following. The antibacterial agent solutions were prepared by dissolving the EGCG derivatives of Example 2 in 100% DMSO and then diluting the resultant mixtures with sterile distilled water. The respective strains were derived from ATCC or NCTC. As Moraxella catarrhalis and Aspergillus fumigatus, clinical isolates thereof without an acquired resistance mechanism were used. For nutrient-rich bacteria, namely, Streptococcus pneumoniae ATCC49619, Streptococcus pyogenes ATCC19615, Streptococcus agalactiae ATCC13813, Moraxella catarrhalis, and Haemophilis influenzae ATCC49766, Strepto Haemo supplement (Eiken Chemical Co., Ltd.) was added to media for culturing them. The MIC measurement with respect to fungi was carried out by a broth microdilution method using a RPMI1640/MOPS (pH 7.0) medium in accordance with CLSI guidelines. About 2×10^3 cells/ml of fungi were inoculated to the medium. After the culture at 35° C. for 24 to 48 hours, the MIC was determined. Also, regarding the antibacterial agent solution of Comparative Example 2, the MIC was measured in the same manner.

[7] = system: Bacillus subtilus ATCC6051; assay: Antibacterial spectrum MIC (Table 7); assay type: cell-based
Experimental: as §1, §2, §3

[8] = system: Enterobacter aerogenes ATCC13048; assay: Antibacterial spectrum MIC (Table 7); assay type: cell-based
Experimental: as §1, §2, §3

[9] = system: Enterococcus faecalis ATCC29212; assay: Antibacterial spectrum MIC (Table 7); assay type: cell-based
Experimental: as §1, §2, §3

[10] = system: Escherichia coli ATCC25922; assay: Antibacterial spectrum MIC (Table 7); assay type: cell-based
Experimental: as §1, §2, §3

[11] = system: Haemophilis influenzae ATCC49766; assay: Antibacterial spectrum MIC (Table 7); assay type: cell-based; settings: Strepto Haemo supplement
Experimental: as §1, §2, §3

[12] = system: Klebsiella oxytoca ATCC8724; assay: Antibacterial spectrum MIC (Table 7); assay type: cell-based
Experimental: as §1, §2, §3

[13] = system: Micrococcus lutus ATCC9341; assay: Antibacterial spectrum MIC (Table 7); assay type: cell-based
Experimental: as §1, §2, §3

Moraxella catarrhalis = assay: Antibacterial spectrum MIC (Table 7); assay type: cell-based; settings: Moraxella catarrhalis clinical isolate, Strepto Haemo supplement
Experimental: as §1, §2, §3

[14] = system: Neisseria gonorrhoeae ATCC49226; assay: Antibacterial spectrum MIC (Table 7); assay type: cell-based
Experimental: as §1, §2, §3

Neisseria meningitidis = assay: Antibacterial spectrum MIC (Table 7); assay type: cell-based
Experimental: as §1, §2, §3

[15] = system: Serratia marcescens ATCC13880; assay: Antibacterial spectrum MIC (Table 7); assay type: cell-based
Experimental: as §1, §2, §3

[16] = system: Staphylococcus aureus ATCC43300 (MRSA); assay: Antibacterial spectrum MIC (Table 7); assay type: cell-based
Experimental: as §1, §2, §3

[17] = system: Staphylococcus aureus NCTC8325; assay: Antibacterial spectrum MIC (Table 7); assay type: cell-based
Experimental: as §1, §2, §3

[18] = system: Staphylococcus epidermis ATCC14990; assay: Antibacterial spectrum MIC (Table 7); assay type: cell-based; settings: for MIC: Staphylococcus epidermis ATCC14990; for antibacterial effect: Staphylococcus epidermids ATCC14990, comparison among EGCG derivatives
Experimental: as §1, §2, §3

[19] = system: Stenotrophomonas maltophilia ATCC13637; assay: Antibacterial spectrum MIC (Table 7); assay type: cell-based
Experimental: as §1, §2, §3

[20] = system: Streptococcus agalactiae ATCC13813; assay: Antibacterial spectrum MIC (Table 7); assay type: cell-based; settings: Strepto Haemo supplement
Experimental: as §1, §2, §3

[21] = system: Streptococcus pneumoniae ATCC49619; assay: Antibacterial spectrum MIC (Table 7); assay type: cell-based; settings: Strepto Haemo supplement
Experimental: as §1, §2, §3

[22] = system: Streptococcus pyogenes ATCC19615; assay: Antibacterial spectrum MIC (Table 7); assay type: cell-based; settings: Strepto Haemo supplement
Experimental: as §1, §2, §3

[23] = system: Yersinia enterocolitica ATCC9610; assay: Antibacterial spectrum MIC (Table 7); assay type: cell-based
Experimental: as §1, §2, §3

| Compound | MIC (MSSA ATCC25923) [µg/mL] | MIC (MSSA ATCC29213) [µg/mL] | MIC [1] [µg/mL] | MIC [2] [µg/mL] | MIC [3] [µg/mL] | MIC [5] [µg/mL] | MIC [6] [µg/mL] | MIC [7] [µg/mL] | MIC [8] [µg/mL] | MIC [9] [µg/mL] | MIC [10] [µg/mL] | MIC [12] [µg/mL] | MIC [13] [µg/mL] | MIC (Moraxella catarrhalis) [µg/mL] | MIC [14] [µg/mL] | MIC (Neisseria meningitidis) [µg/mL] | MIC [15] [µg/mL] | MIC [16] [µg/mL] | MIC [17] [µg/mL] | MIC [18] [µg/mL] | also measured |
| --- | --- | --- | --- | --- | --- | --- | --- | --- | --- | --- | --- | --- | --- | --- | --- | --- | --- | --- | --- | --- | --- |
| O=C(O[C@@H]1Cc2c(O)cc(O)cc2O[C@@H]1c1cc(O)c(O)c(O)c1)c1cc(O)c(O)c(O)c1 [EGCG, Epigallocatechin gallate, reference compound] | >128 | >128 | >128 | >128 | >128 | >128 | 64 (≈ 140 µM) | 64 (≈ 140 µM) | 64 (≈ 140 µM) | 256 (≈ 558 µM) | 128 (≈ 279 µM) | 128 (≈ 279 µM) | 128 (≈ 279 µM) | 128 (≈ 279 µM) | 32 (≈ 69.8 µM) | 32 (≈ 69.8 µM) | 128 (≈ 279 µM) | 128 (≈ 279 µM) | 128 (≈ 279 µM) | 128 (≈ 279 µM) | MIC [4]: >128 µg/mL; MIC [11]: 32 µg/mL (≈ 69.8 µM); MIC [19]: 64 µg/mL (≈ 140 µM); MIC [20]: 256 µg/mL (≈ 558 µM); MIC [21]: 32 µg/mL (≈ 69.8 µM); MIC [22]: 128 µg/mL (≈ 279 µM); MIC [23]: 64 µg/mL (≈ 140 µM) |
| EGCG-stearate [EGCG-C18] | 32 | 32 | 32 | 32 | 32 | 32 | 32 | 32 | 32 | 32 | 64 | 64 | 64 | 64 | 16 | 16 | 64 | 32 | 32 | 32 | antibacterial effect [18]: strongest antibacterial effect; MIC [19]: 32 µg/mL; MIC [20]: 64 µg/mL; MIC [22]: 64 µg/mL; MIC [23]: 32 µg/mL |
| EGCG-linolate [EGCG-C18DE] | 32 | 16 | 16 | 16 | 32 | 16 | 16 | 32 | 32 | 64 | 64 | 64 | 64 | 64 | 16 | 16 | 64 | 64 | 16 | 64 | MIC [4]: 64 µg/mL; MIC [11]: 16 µg/mL; MIC [19]: 32 µg/mL; MIC [20]: >64 µg/mL; MIC [21]: 16 µg/mL; MIC [22]: 64 µg/mL; MIC [23]: 32 µg/mL |
| EGCG-palmitate [EGCG-C16] | 16 | 16 | 16 | 16 | 16 | 16 | 16 | 16 | 32 | 16 | 64 | 64 | 64 | 64 | 16 | 16 | 64 | 32 | 16 | 32 | MIC [4]: 32 µg/mL; MIC [11]: 16 µg/mL; antibacterial effect [18]: strongest antibacterial effect; MIC [19]: 32 µg/mL; MIC [20]: >64 µg/mL; MIC [21]: 16 µg/mL; MIC [22]: 64 µg/mL; MIC [23]: 32 µg/mL |
| EGCG-dioctanoate [EGCG-C8×2] | 16 | 16 | 16 | 16 | 16 | 16 | 16 | 32 | 16 | 64 | 64 | 64 | 64 | 32 | 16 | 16 | 64 | 64 | 16 | 64 | MIC [4]: 16 µg/mL; MIC [11]: 16 µg/mL; MIC [19]: 32 µg/mL; MIC [20]: 64 µg/mL; MIC [21]: 16 µg/mL; MIC [22]: 32 µg/mL; MIC [23]: 32 µg/mL |
| EGCG-α-linoleate [EGCG-C18TE] | 32 | 16 | 16 | 16 | 16 | 16 | 32 | 32 | 32 | 64 | 64 | 64 | 64 | 32 | 16 | 16 | 64 | 64 | 16 | 64 | MIC [4]: 64 µg/mL; MIC [11]: 16 µg/mL; MIC [19]: 32 µg/mL; MIC [20]: >64 µg/mL; MIC [21]: 16 µg/mL; MIC [22]: 64 µg/mL; MIC [23]: 32 µg/mL |
